{"source": "patent US20250025445A1", "about": "“METHOD OF CARDIOPROTECTION” (Race Oncology LTD., priority 2021, published 2025)", "key": {"[1]": {"assay": "Doxorubicin cardiotoxicity in mice: histologic cardiac fibrosis", "assay_type": "in vivo", "conditions": "bisantrene co-administered with doxorubicin at 1:1 molar ratio; Day 21; relative to matched doses of doxorubicin", "source_text": "In particular, well established cardiotoxicity markers, including left ventricular fractional shortening, heart E/A ratio, left ventricular diastolic function, left ventricular dilatation, cardiac output, plasma triglyceride levels, plasma creatine kinase-MB (CK-MB), plasma LDH (lactate dehydrogenase) and plasma brain natriuretic peptide (BNP) were monitored over a period of up to 42 days following the start of treatments delivered weekly, four times (and therefore final treatment on day 21).\nTreatments were delivered to mice intravenously on days 0, 7, 14 and 21. Mice underwent echocardiography measurements at days 0, 21 and 42 to determine LVEF, FS, EDV, ESV, CO, E wave, A wave, E′, E/A, and E/E′, and blood samples were taken at days 0, 21 and 42 to assay for cardiac troponin I levels, BNP levels, CK, LDH levels and triglycerides."}, "[2]": {"tested_on": "tumor cells from 684 patients", "conditions": "breast, small cell lung, large cell lung, squamous cell lung, ovarian, pancreatic, renal, adrenal, head and neck, sarcoma, gastric, lymphoma and melanoma tumor cells; cited from earlier work"}}, "data": [{"smiles": "C(=NNC1=NCCN1)c1c2ccccc2c(C=NNC2=NCCN2)c2ccccc12", "note": "[bisantrene, 9,10-anthracenedicarboxaldehyde bis [(4,5-dihydro-1H-imidazol-2-yl)hydrazone]]", "values": [{"measurement": "histologic cardiac fibrosis", "setting": "[1]", "value": "significantly decreased"}, {"measurement": "activity in clonogenic assays", "setting": "[2]", "value": "Activity in clonogenic assays from 684 patients was seen"}]}]}
